According to patent US11572373B2, “Maytansinoid-based drug delivery systems” (LADRX CORPORATION, priority 2017, dated 2023):
Marks after values point to notes of the source that are not given here.

Key:
[1] = Stability and release kinetics of maytansinoid-HSA conjugates in buffer solution at pH 4.0 and pH 7.4; format: physicochemical; conditions: maytansinoid-HSA conjugate, PBS pH 7.4, 37° C.
Protocol: For preparing HSA conjugates of albumin-binding maytansinoids, HSA (200 μM: 361.8 μL, 1078 μM free Cys34; 100 μM: 180.9 μL, 1078 μM free Cys34) was diluted with PBS buffer (4 mM sodium phosphate, 150 mM NaCl, pH 7.4) (200 μM: 678.2 μL; 100 μM: 859.1 μL) and DMSO (200 μM: 130.0 μL; 100 μM: 195.0 μL) and incubated in a heating block at 37° C. for 30 minutes. The albumin-binding maytansinoid was added as a 2 mM stock solution in DMSO (200 μM: 130.0 μL; 100 μM: 65.0 μL) to the preincubated HSA sample to produce a 200 μM or 100 μM solution of maytansinoid-prodrug and 300 μM or 150 μM of free Cys34. The mixture having a pH of 7.4 was allowed to react for 10 min at 37° C. and was then analyzed hourly for 24 hours by RP-HPLC (Phenomenex Aeris WP XB-C18, 3.6 μm, 250×4.6 mm).
For studying the release kinetics at pH 4.0 the mixture was acidified with a mixture of 50 mM sodium acetate buffer pH 3.0 (200 μM: 119.3 μL; 100 μM: 125.2 μL) and 1 M HCl (200 μM: 12.7 μL; 100 μM: 6.8 μL) to reach pH 4.0. The mixture was subsequently analyzed hourly for 24 hours by RP-HPLC (Phenomenex Aeris WP XB-C18, 3.6 μm, 250×4.6 mm).
The following RP-HPLC conditions were used: Phenomenex Aeris WP XB-C18 3.6 μm, 250×4.6 mm; eluent A (100% 20 mM Tris buffer pH 8.0) and eluent B (90:10, MeCN: water) eluting with a gradient of eluent B (25% 0-0.5 min, 25-35% 0.5-2.5 min, 35-85% 2.5-16 min, 85-95% 16-17 min, 95% 17-20 min, 95-25% 20-25 min, 25% 25-30 min, flow rate 1.0 mL/min). Column oven temperature 37° C.; autosampler temperature 37° C.; 20 μL of injection volume.
To quantify the percentage of free drug released, standard curves of the free maytansinoids were prepared at different concentrations (200 μM, 100 μM, 50 μM, 25 μM and 12.5 μM). The area under the curve (AUC) was determined at 250 nm.

[2] = In vitro cytotoxicity in different cell lines using the CellTiter-Blue Cell Viability Assay; format: cell-based, human; conditions: Homo sapiens; geometric mean over the n cell lines tested, 96 h treatment, CellTiter-Blue; read-out: Geomean IC50
[3] = test system: human tumor xenograft models; assay: Antitumor activity in human tumor xenograft mice models; format: in vivo; conditions: five human tumor xenograft models in nude mice, i.v. on day 1, 8, 15, and 22
Description: This included starting tumor volumes in the range of approximately 80-110 mm^3 but also initial starting tumor volumes of up to approximately 400 mm^3. Furthermore, in most cases therapy with albumin-binding maytansinoids 30 and 31 induced long-term remissions and a decrease in Relative Tumor Volume (RTV). […] Experimental procedure and the results in the tumor-bearing mice models are described in detail in Examples 11-19 and FIGS. 3-16.
Female immunodeficient NMRI nude mice, from Charles River, received unilateral tumor implants subcutaneously in the left flank while under isoflurane anesthesia with human cancer tumors until tumors were palpable and had reached a volume of 80-200 mm^3 (unless otherwise stated).
Animals were kept in cages, the temperature inside the cages maintained at 25±1° C. with a relative humidity of 45-65% and an air change rate in the cage of 60-fold per hour. They were kept under a 14 h light: 10 h dark, artificial light cycle. The animals were fed with autoclaved Teklad Global 19% Protein Extruded Diet (T.2019S.12) from Envigo RMS SARL and had access to sterile filtered and acidified (pH 2.5) tap water, which was changed twice weekly. Feed and water were provided ad libitum. […] Animals were routinely monitored twice daily on working days and daily on Saturdays and Sundays. […] Relative body weights (RBW) of individual animals were calculated by dividing the individual absolute body weight on day X (BWx) by the individual body weight on the day of randomization multiplied by 100%. The tumor volume was determined by a two-dimensional measurement with calipers on the day of randomization (day 0) and then twice weekly. Tumor volumes were calculated according to the following equation: Tumor Vol [mm^3]=1 [mm]×w^2 [mm^2]×0.5, where “1” is the length and “w” is width of the tumor. The relative volume of an individual tumor on day X (RTVx) was calculated by dividing the absolute individual tumor volume [mm^3] of the respective tumor on day X (Tx) by the absolute individual tumor volume of the same tumor on the day of randomization multiplied by 100%. […]

SMILES	free maytansinoid after 24 h at pH 7.4 ([1]; measured at 200 μM)	also measured
COc1cc2cc(c1Cl)N(C)C(=O)C[C@H](OC(=O)Cc1ccc(/C(C)=N/NC(=O)c3ccc(NC(=O)CCCCCN4C(=O)C=CC4=O)cc3S(=O)(=O)O)cc1)[C@]1(C)O[C@H]1[C@H](C)[C@@H]1C[C@@](O)(NC(=O)O1)[C@H](OC)/C=C/C=C(\C)C2 [Compound 32]	9.5%*	–
COc1cc2cc(c1Cl)N(C)C(=O)C[C@H](OC(=O)Cc1ccc(/C(C)=N/NC(=O)c3ccc(NC(=O)CCNC(=O)[C@H](CS(=O)(=O)O)NC(=O)CCCCCN4C(=O)C=CC4=O)cc3[N+](=O)[O-])cc1)[C@]1(C)O[C@H]1[C@H](C)[C@@H]1C[C@@](O)(NC(=O)O1)[C@H](OC)/C=C/C=C(\C)C2 [Compound 33]	6.5%*	–
COc1cc2cc(c1Cl)N(C)C(=O)C[C@H](OC(=O)COc1ccc(/C(C)=N/NC(=O)c3ccc(NC(=O)CCCCCN4C(=O)C=CC4=O)cc3S(=O)(=O)O)cc1)[C@]1(C)O[C@H]1[C@H](C)[C@@H]1C[C@@](O)(NC(=O)O1)[C@H](OC)/C=C/C=C(\C)C2 [Compound 36]	4.7%*	–
COc1cc2cc(c1Cl)N(C)C(=O)C[C@H](OC(=O)CSc1ccc(/C(C)=N/NC(=O)c3ccc(NC(=O)CCCCCN4C(=O)C=CC4=O)cc3S(=O)(=O)O)cc1)[C@]1(C)O[C@H]1[C@H](C)[C@@H]1C[C@@](O)(NC(=O)O1)[C@H](OC)/C=C/C=C(\C)C2 [Compound 37]	3.9%*	–
COc1cc2cc(c1Cl)N(C)C(=O)C[C@H](OC(=O)CSc1ccc(/C(C)=N/NC(=O)c3ccc(NC(=O)CCCCCN4C(=O)C=CC4=O)cc3S(=O)(=O)O)cc1C(F)(F)F)[C@]1(C)O[C@H]1[C@H](C)[C@@H]1C[C@@](O)(NC(=O)O1)[C@H](OC)/C=C/C=C(\C)C2 [Compound 38]	4.9%*	–
COc1cc2cc(c1Cl)N(C)C(=O)C[C@H](OC(=O)CSc1ccc(/C(C)=N/NC(=O)c3ccc(NC(=O)CCCCCN4C(=O)C=CC4=O)cc3S(=O)(=O)O)cc1C)[C@]1(C)O[C@H]1[C@H](C)[C@@H]1C[C@@](O)(NC(=O)O1)[C@H](OC)/C=C/C=C(\C)C2 [Compound 39]	9.6%*	–
COc1cc2cc(c1Cl)N(C)C(=O)C[C@H](OC(=O)CN(C)c1ccc(/C(C)=N/NC(=O)c3ccc(NC(=O)CCCCCN4C(=O)C=CC4=O)cc3S(=O)(=O)O)cc1)[C@]1(C)O[C@H]1[C@H](C)[C@@H]1C[C@@](O)(NC(=O)O1)[C@H](OC)/C=C/C=C(\C)C2 [Compound 40]	8.9%*	–
COc1cc2cc(c1Cl)N(C)C(=O)C[C@H](OC(=O)CCc1ccc(/C(C)=N/NC(=O)c3ccc(NC(=O)CCCCCN4C(=O)C=CC4=O)cc3S(=O)(=O)O)cc1)[C@]1(C)O[C@H]1[C@H](C)[C@@H]1C[C@@](O)(NC(=O)O1)[C@H](OC)/C=C/C=C(\C)C2 [Compound 41]	4.6%*	–
COc1cc2cc(c1Cl)N(C)C(=O)C[C@H](OC(=O)COc1cccc(/C(C)=N/NC(=O)c3ccc(NC(=O)CCNC(=O)[C@H](CS(=O)(=O)O)NC(=O)CCCCCN4C(=O)C=CC4=O)cc3[N+](=O)[O-])c1)[C@]1(C)O[C@H]1[C@H](C)[C@@H]1C[C@@](O)(NC(=O)O1)[C@H](OC)/C=C/C=C(\C)C2 [Compound 42]	–	free maytansinoid after 24 h at pH 7.4 ([1]; measured at 100 μM): 4.8%**
COc1cc2cc(c1Cl)N(C)C(=O)C[C@H](OC(=O)[C@H](C)N(C)C(C)=O)[C@]1(C)O[C@H]1[C@H](C)[C@@H]1C[C@@](O)(NC(=O)O1)[C@H](OC)/C=C/C=C(\C)C2 [Maytansine, maytansine, reference compound]	–	IC50 [2]: 0.22 nM; antitumor activity [3]: principally inactive in the tested models or only showed marginal tumor inhibition
